Measured values from US20160271263A1 (Novo Nordisk A/S, priority 2010, published 2016).
Numbered stars: 1 amine (or outer) side, 2 acyl side, 3 side chain; on linkers, the order of the positions; unused ones are H or OH. Square brackets hold non-standard residues; d marks the D form. Side chains are listed from the residue outwards. Peptide text beside a SMILES is read from it. * marks the point of attachment. C18 diacid = O=C(O)CCCCCCCCCCCCCCCCC(=O)*; γGlu = O=C(O)[C@H](CCC(=O)[*:2])N[*:1]; AEEA = NCCOCCOCC(=O)O; Aib = CC(C)(N)C(=O)O

molecular target: glucagon receptor (Homo sapiens, UniProt P47871); experiment: cell-based
Sequence (P47871 26-477): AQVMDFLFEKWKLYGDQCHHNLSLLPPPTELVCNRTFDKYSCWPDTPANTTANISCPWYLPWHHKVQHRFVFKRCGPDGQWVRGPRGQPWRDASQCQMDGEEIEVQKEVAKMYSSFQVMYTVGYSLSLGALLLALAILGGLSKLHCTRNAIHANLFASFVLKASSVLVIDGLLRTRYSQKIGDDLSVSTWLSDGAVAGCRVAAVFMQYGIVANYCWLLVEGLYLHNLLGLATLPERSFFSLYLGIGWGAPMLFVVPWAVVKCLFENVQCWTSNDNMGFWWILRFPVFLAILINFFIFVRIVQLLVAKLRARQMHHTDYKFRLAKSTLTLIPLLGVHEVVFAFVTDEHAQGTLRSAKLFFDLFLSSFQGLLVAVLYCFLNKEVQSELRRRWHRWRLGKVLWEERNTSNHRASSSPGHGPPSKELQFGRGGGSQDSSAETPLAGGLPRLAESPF

Compound | EC50
CC(C)C[C@H](NC(=O)[C@H](Cc1ccc(O)cc1)NC(=O)[C@H](CCCCN)NC(=O)[C@H](CO)NC(=O)[C@H](Cc1ccc(O)cc1)NC(=O)[C@H](CC(=O)O)NC(=O)[C@H](CO)NC(=O)[C@@H](NC(=O)[C@H](Cc1ccccc1)NC(=O)[C@@H](NC(=O)CNC(=O)[C@H](CCC(N)=O)NC(=O)[C@H](CO)NC(=O)[C@@H](N)Cc1c[nH]cn1)[C@@H](C)O)[C@@H](C)O)C(=O)N[C@@H](CC(=O)O)C(=O)N[C@@H](CCCCNC(=O)COCCOCCNC(=O)COCCOCCNC(=O)CC[C@H](NC(=O)CCCCCCCCCCCCCCCCC(=O)O)C(=O)O)C(=O)N[C@@H](CCCCN)C(=O)N[C@@H](CCCNC(=N)N)C(=O)N[C@@H](C)C(=O)N[C@@H](CCC(N)=O)C(=O)N[C@@H](CCC(=O)O)C(=O)N[C@@H](Cc1ccccc1)C(=O)N[C@H](C(=O)N[C@@H](CCC(N)=O)C(=O)N[C@@H](Cc1c[nH]c2ccccc12)C(=O)N[C@@H](CC(C)C)C(=O)N[C@@H](CC(C)C)C(=O)N[C@@H](CC(N)=O)C(=O)N[C@H](C(N)=O)[C@@H](C)O)C(C)C [Example 34, N^ε16-([2-[2-[2-[[2-[2-[2-[[(4S)-5-hydroxy-4-[(18-hydroxy-18-oxooctadecanoyl)amino]-5-oxopentanoyl]amino]ethoxy]ethoxy]acetyl]amino]ethoxy]ethoxy]acetyl])[Lys^16,Lys^17,Glu^21, Leu^27] Glucagon peptide amide] (H-HSQGTFTSDYSKYLDK([AEEA-AEEA-γGlu-C18 diacid])KRAQEFVQWLLNT-NH2; N-terminus assumed) | 18 pM
CC(C)C[C@H](NC(=O)[C@H](Cc1ccc(O)cc1)NC(=O)[C@H](CCCCN)NC(=O)[C@H](CO)NC(=O)[C@H](Cc1ccc(O)cc1)NC(=O)[C@H](CC(=O)O)NC(=O)[C@H](CO)NC(=O)[C@@H](NC(=O)[C@H](Cc1ccccc1)NC(=O)[C@@H](NC(=O)CNC(=O)[C@H](CCC(N)=O)NC(=O)[C@H](CO)NC(=O)[C@@H](N)Cc1c[nH]cn1)[C@@H](C)O)[C@@H](C)O)C(=O)N[C@@H](CC(=O)O)C(=O)N[C@@H](CO)C(=O)N[C@@H](CCCCN)C(=O)N[C@@H](CCCNC(=N)N)C(=O)N[C@@H](C)C(=O)N[C@@H](CCC(N)=O)C(=O)N[C@@H](CCC(=O)O)C(=O)N[C@@H](Cc1ccccc1)C(=O)N[C@H](C(=O)N[C@@H](CCCCNC(=O)COCCOCCNC(=O)COCCOCCNC(=O)CC[C@H](NC(=O)CCCCCCCCCCCCCCCCC(=O)O)C(=O)O)C(=O)N[C@@H](Cc1c[nH]c2ccccc12)C(=O)N[C@@H](CC(C)C)C(=O)N[C@@H](CC(C)C)C(=O)N[C@@H](CC(N)=O)C(=O)N[C@H](C(N)=O)[C@@H](C)O)C(C)C [Example 35, N^ε24-([2-[2-[2-[[2-[2-[2-[[(4S)-5-hydroxy-4-[(18-hydroxy-18-oxooctadecanoyl)amino]-5-oxopentanoyl]amino]ethoxy]ethoxy]acetyl]amino]ethoxy]ethoxy]acetyl])[Lys^17,Glu^21, Lys^24, Leu^27]Glucagon peptide amide] (H-HSQGTFTSDYSKYLDSKRAQEFVK([AEEA-AEEA-γGlu-C18 diacid])WLLNT-NH2; N-terminus assumed) | 16 pM
CC(C)C[C@H](NC(=O)[C@H](Cc1ccc(O)cc1)NC(=O)[C@H](CCCCN)NC(=O)[C@H](CO)NC(=O)[C@H](Cc1ccc(O)cc1)NC(=O)[C@H](CC(=O)O)NC(=O)[C@H](CO)NC(=O)[C@@H](NC(=O)[C@H](Cc1ccccc1)NC(=O)[C@@H](NC(=O)CNC(=O)[C@H](CCC(N)=O)NC(=O)[C@H](CO)NC(=O)[C@@H](N)Cc1c[nH]cn1)[C@@H](C)O)[C@@H](C)O)C(=O)N[C@@H](CC(=O)O)C(=O)N[C@@H](CCC(=O)O)C(=O)N[C@@H](CCCCN)C(=O)N[C@@H](C)C(=O)N[C@@H](C)C(=O)N[C@@H](CCC(N)=O)C(=O)N[C@@H](CCC(=O)O)C(=O)N[C@@H](Cc1ccccc1)C(=O)N[C@H](C(=O)N[C@@H](CCCCNC(=O)COCCOCCNC(=O)COCCOCCNC(=O)CC[C@H](NC(=O)CCCCCCCCCCCCCCCCC(=O)O)C(=O)O)C(=O)N[C@@H](Cc1c[nH]c2ccccc12)C(=O)N[C@@H](CC(C)C)C(=O)N[C@@H](CC(C)C)C(=O)N[C@@H](CC(N)=O)C(=O)N[C@H](C(N)=O)[C@@H](C)O)C(C)C [Example 36, N^ε24-([2-[2-[2-[[2-[2-[2-[[(4S)-5-hydroxy-4-[(18-hydroxy-18-oxooctadecanoyl)amino]-5-oxopentanoyl]amino]ethoxy]ethoxy]acetyl]amino]ethoxy]ethoxy]acetyl])[Glu^16, Lys^17, Ala^18,Glu^21, Lys^24, Leu^27]Glucagon peptide amide] (H-HSQGTFTSDYSKYLDEKAAQEFVK([AEEA-AEEA-γGlu-C18 diacid])WLLNT-NH2; N-terminus assumed) | 48 pM
CC(C)C[C@H](NC(=O)[C@H](Cc1ccc(O)cc1)NC(=O)[C@H](CCCCN)NC(=O)[C@H](CO)NC(=O)[C@H](Cc1ccc(O)cc1)NC(=O)[C@H](CC(=O)O)NC(=O)[C@H](CO)NC(=O)[C@@H](NC(=O)[C@H](Cc1ccccc1)NC(=O)[C@@H](NC(=O)CNC(=O)[C@H](CCC(N)=O)NC(=O)[C@H](CO)NC(=O)[C@@H](N)Cc1c[nH]cn1)[C@@H](C)O)[C@@H](C)O)C(=O)N[C@@H](CC(=O)O)C(=O)N[C@@H](CO)C(=O)N[C@@H](CCCCN)C(=O)N[C@@H](C)C(=O)N[C@@H](C)C(=O)N[C@@H](CCC(N)=O)C(=O)N[C@@H](CCC(=O)O)C(=O)N[C@@H](Cc1ccccc1)C(=O)N[C@H](C(=O)N[C@@H](CCCCNC(=O)COCCOCCNC(=O)COCCOCCNC(=O)CC[C@H](NC(=O)CCCCCCCCCCCCCCCCC(=O)O)C(=O)O)C(=O)N[C@@H](Cc1c[nH]c2ccccc12)C(=O)N[C@@H](CC(C)C)C(=O)N[C@@H](CC(C)C)C(=O)N[C@@H](CC(N)=O)C(=O)N[C@H](C(N)=O)[C@@H](C)O)C(C)C [Example 37, N^ε24-([2-[2-[2-[[2-[2-[2-[[(4S)-5-hydroxy-4-[(18-hydroxy-18-oxooctadecanoyl)amino]-5-oxopentanoyl]amino]ethoxy]ethoxy]acetyl]amino]ethoxy]ethoxy]acetyl])[Lys^17, Ala^18,Glu^21, Lys^24, Leu^27] Glucagon peptide amide] (H-HSQGTFTSDYSKYLDSKAAQEFVK([AEEA-AEEA-γGlu-C18 diacid])WLLNT-NH2; N-terminus assumed) | 33 pM
CC(C)C[C@H](NC(=O)[C@H](Cc1ccc(O)cc1)NC(=O)[C@H](CCCCN)NC(=O)[C@H](CO)NC(=O)[C@H](Cc1ccc(O)cc1)NC(=O)[C@H](CC(=O)O)NC(=O)[C@H](CO)NC(=O)[C@@H](NC(=O)[C@H](Cc1ccccc1)NC(=O)[C@@H](NC(=O)CNC(=O)[C@H](CCC(N)=O)NC(=O)[C@H](CO)NC(=O)[C@@H](N)Cc1c[nH]cn1)[C@@H](C)O)[C@@H](C)O)C(=O)N[C@@H](CC(=O)O)C(=O)N[C@@H](CCC(=O)O)C(=O)N[C@@H](CCCCN)C(=O)N[C@@H](CCCNC(=N)N)C(=O)N[C@@H](C)C(=O)N[C@@H](CCC(N)=O)C(=O)N[C@@H](CCC(=O)O)C(=O)N[C@@H](Cc1ccccc1)C(=O)N[C@H](C(=O)N[C@@H](CCCCNC(=O)COCCOCCNC(=O)COCCOCCNC(=O)CC[C@H](NC(=O)CCCCCCCCCCCCCCCCC(=O)O)C(=O)O)C(=O)N[C@@H](Cc1c[nH]c2ccccc12)C(=O)N[C@@H](CC(C)C)C(=O)N[C@@H](CC(C)C)C(=O)N[C@@H](CC(N)=O)C(=O)N[C@H](C(N)=O)[C@@H](C)O)C(C)C [Example 38, N^ε24-([2-[2-[2-[[2-[2-[2-[[(4S)-5-hydroxy-4-[(18-hydroxy-18-oxooctadecanoyl)amino]-5-oxopentanoyl]amino]ethoxy]ethoxy]acetyl]amino]ethoxy]ethoxy]acetyl])[Glu^16, Lys^17, Glu^21, Lys^24,Leu^27] Glucagon peptide amide] (H-HSQGTFTSDYSKYLDEKRAQEFVK([AEEA-AEEA-γGlu-C18 diacid])WLLNT-NH2; N-terminus assumed) | 15 pM
CC(C)C[C@H](NC(=O)[C@H](Cc1ccc(O)cc1)NC(=O)[C@H](CCCCN)NC(=O)[C@H](CO)NC(=O)[C@H](Cc1ccc(O)cc1)NC(=O)[C@H](CC(=O)O)NC(=O)[C@H](CO)NC(=O)[C@@H](NC(=O)[C@H](Cc1ccccc1)NC(=O)[C@@H](NC(=O)CNC(=O)[C@H](CCC(N)=O)NC(=O)C(C)(C)NC(=O)[C@@H](N)Cc1c[nH]cn1)[C@@H](C)O)[C@@H](C)O)C(=O)N[C@@H](CC(=O)O)C(=O)N[C@@H](CCCCNC(=O)COCCOCCNC(=O)COCCOCCNC(=O)CC[C@H](NC(=O)CCCCCCCCCCCCCCCCC(=O)O)C(=O)O)C(=O)N[C@@H](CCCCN)C(=O)N[C@@H](CCCNC(=N)N)C(=O)N[C@@H](C)C(=O)N[C@@H](CCC(N)=O)C(=O)N[C@@H](CCC(=O)O)C(=O)N[C@@H](Cc1ccccc1)C(=O)N[C@H](C(=O)N[C@@H](CCC(N)=O)C(=O)N[C@@H](Cc1c[nH]c2ccccc12)C(=O)N[C@@H](CC(C)C)C(=O)N[C@@H](CC(C)C)C(=O)N[C@@H](CC(N)=O)C(=O)N[C@H](C(N)=O)[C@@H](C)O)C(C)C [Example 39, N^ε16-([2-[2-[2-[[2-[2-[2-[[(4S)-5-hydroxy-4-[(18-hydroxy-18-oxooctadecanoyl)amino]-5-oxopentanoyl]amino]ethoxy]ethoxy]acetyl]amino]ethoxy]ethoxy]acetyl]) [Aib^2, Lys^16, Lys^17, Glu^21,Leu^27] Glucagon peptide amide] (H-H[Aib]QGTFTSDYSKYLDK([AEEA-AEEA-γGlu-C18 diacid])KRAQEFVQWLLNT-NH2; N-terminus assumed) | 7 pM
